# US7291641B2, “Derivatives of heterocycles with 5 members, their preparation and their use as medicaments” (Societe de Conseils de Recherches et d'Applications …, priority 1999, dated 2007)
# Structures can show the parent of a compound that is named as a salt.
smiles,measurement,value
"CCCCCCC(NC1CCC1)c1nc(-c2ccc(F)cc2)c[nH]1 (racemic) (as salt: hydrochloride) [Example 84, (R,S)-N-{1-[4-(4-fluorophenyl)-1H-imidazol-2-yl]heptyl}-cyclobutanamine]",melting point,144 to 146 °C
"CCCCOC(=O)NCCc1nc(-c2ccc(-c3ccccc3OC)cc2)c[nH]1 [Example 458, butyl 2-[4-(2′-methoxy-1,1′-biphenyl-4-yl)-1H-imidazol-2-yl]ethylcarbamate]",melting point,116 to 121 °C
"O=C(NCCc1nc(-c2ccc(-c3ccc(Br)cc3)cc2)c[nH]1)OCC1CCCCC1 [Example 303, cyclohexylmethyl 2-[4-(4′-bromo-1.1′-biphenyl-4-yl)-1H-imidazol-2-yl]ethylcarbamate]",melting point,130 to 132 °C
"CCCCCCC(N)c1nc(-c2ccc(C)cc2)c[nH]1 (racemic) (as salt: hydrochloride) [Example 184, (R,S)-1-[4-(4-methylphenyl)-1H-imidazol-2-yl]-1-heptanamine]",melting point,157 to 160 °C
"CCCCCCC(NC1CCCCC1)c1nc(-c2ccccc2)c[nH]1 (racemic) [Example 76, (R,S)-N-[1-(4-phenyl-1H-imidazol-2-yl)heptyl]cyclohexanamine]",melting point,68 to 70 °C
"CCCCOC(=O)NCCc1nc(-c2ccc(-c3ccccc3F)cc2)c[nH]1 [Example 396, butyl 2-[4-(2′-fluoro-1,1′-biphenyl-4-yl)-1H-imidazol-2-yl]ethylcarbamate]",melting point,113.8 °C
"Fc1ccc(-c2c[nH]c([C@@H](NC3CCCCC3)C3CCCCC3)n2)cc1 [Example 283, N-{(S)-cyclohexyl[4-(4-fluorophenyl)-1H-imidazol-2-yl]methyl}-cyclohexanamine]",melting point,260 to 262 °C
"N[C@H](CC1CCCCC1)c1nc(-c2ccccc2)c[nH]1 (as salt: hydrochloride) [Example 132, (1R)-2-cyclohexyl-1-(4-phenyl-1H-imidazol-2-yl)ethanamine]",melting point,196 to 198 °C
"CC(C)CCCC(NC1CCCCC1)c1nc(-c2cccc(Br)c2)c[nH]1 (racemic) (as salt: hydrochloride) [Example 272, (R,S)-N-{1-[4-(3-bromophenyl)-1H-imidazol-2-yl]-5-methylhexyl}-cyclohexanamine]",melting point,216.7 °C
"CCCCOC(=O)NCCc1nc(-c2ccc(C3CCCCC3)cc2)c[nH]1 [Example 268, butyl 2-[4-(4-cyclohexylphenyl)-1H-imidazol-2-yl]ethylcarbamate]",melting point,138.4 °C
"FC(F)(F)c1cccc(-c2c[nH]c([C@@H](NCC3CCCCC3)C3CCCCC3)n2)c1 (as salt: hydrochloride) [Example 307, (S)-1-cyclohexyl-N-(cyclohexylmethyl)-1-{4-[3-(trifluoromethyl)-phenyl]-1H-imidazol-2-yl}methanamine]",melting point,198 to 200 °C
"CC(C)(C)OC(=O)N(Cc1ccccc1)Cc1nc(-c2ccc(-c3ccccc3)cc2)c[nH]1 [Example 165, 4-(2-{[benzyl(tert-butoxycarbonyl)amino]methyl}-1H-imidazol-4-yl)-1,1′-biphenyl]",melting point,130 to 132 °C
"Fc1ccc(-c2c[nH]c([C@@H](NC3CCCCC3)C3CCCCC3)n2)cc1F [Example 287, N-{(S)-cyclohexyl[4-(3,4-difluorophenyl)-1H-imidazol-2-yl]methyl}cyclohexanamine]",melting point,182.3 °C
"CCCCOC(=O)NCCc1nc(-c2ccc(CC(C)C)cc2)c[nH]1 [Example 445, butyl 2-[4-(4-isobutylphenyl)-1H-imidazol-2-yl]ethylcarbamate]",melting point,95.5 °C
"Cn1cc(-c2ccc(-c3ccccc3)cc2)nc1CNC(=O)OC(C)(C)C [Example 146, 4-(2-{[(tert-butoxycarbonyl)amino]methyl}-1-methyl-1H-imidazol-4-yl)-1,1′-biphenyl]",melting point,208 to 210 °C
"N[C@H](CCc1ccccc1)c1nc(-c2ccccc2)c[nH]1 (as salt: hydrochloride) [Example 131, (1R)-3-phenyl-1-(4-phenyl-1H-imidazol-2-yl)-1-propanamine]",melting point,174 to 176 °C
"Brc1cccc(-c2c[nH]c(CNC3CCCCC3)n2)c1 [Example 254, N-{[4-(3-bromophenyl)-1H-imidazol-2-yl]methyl}cyclohexanamine]",melting point,202 to 204 °C
"CC(C)(C)OC(=O)NCc1nc(-c2ccccc2)cn1Cc1ccccc1 [Example 104, tert-butyl (1-benzyl-4-phenyl-1H-imidazol-2-yl)methylcarbamate]",melting point,140 to 142 °C
"FC(F)(F)c1cccc(-c2c[nH]c([C@@H](NC3CCCCC3)C3CCCCC3)n2)c1 [Example 304, N-((S)-cyclohexyl{4-[3-(trifluoromethyl)phenyl]-1H-imidazol-2-yl}methyl)cyclohexanamine]",melting point,186 to 188 °C
"Fc1ccc2c(CC(NCc3ccccc3)c3nc(-c4ccccc4)c[nH]3)c[nH]c2c1 (racemic) [Example 105, (R,S)-N-benzyl-2-(6-fluoro-1H-indol-3-yl)-1-(4-phenyl-1H-imidazol-2-yl)ethanamine]",melting point,98 to 100 °C
"CCCCCCNCCc1nc(-c2ccc(-c3ccccc3)cc2)c[nH]1 [Example 176, N-[2-(4-[1,1′-biphenyl]-4-yl-1H-imidazol-2-yl)ethyl]-1-hexanamine]",melting point,152 to 154 °C
"Fc1ccc(-c2c[nH]c([C@@H](NC3CCC3)C3CCCCC3)n2)cc1 [Example 35, N-{(S)-cyclohexyl[4-(4-fluorophenyl)-1H-imidazol-2-yl]methyl}cyclobutanamine]",melting point,170 to 172 °C
"NCCCCCCc1nc(-c2ccccc2)c[nH]1 (as salt: hydrochloride) [Example 180, 6-(4-phenyl-1H-imidazol-2-yl)hexylamine]",melting point,244 to 246 °C
"Fc1ccc(-c2c[nH]c(C(NC3CCC3)C3CCCC3)n2)cc1 (racemic) [Example 274, (R,S)-N-{cyclopentyl[4-(4-fluorophenyl)-1H-imidazol-2-yl]methyl}cyclobutanamine]",melting point,146 to 148 °C
"CC(C)CCOC(=O)NCCc1nc(-c2ccc(-c3ccccc3)cc2)c[nH]1 [Example 380, isopentyl 2-[4-(1,1′-biphenyl-4-yl)-1H-imidazol-2-yl]ethylcarbamate]",melting point,128 to 130 °C
"CCN(CC)c1ccc(-c2c[nH]c([C@@H](NC3CCCCC3)C3CCCCC3)n2)cc1 (as salt: hydrochloride) [Example 292, 4-{2-[(S)-cyclohexyl(cyclohexylamino)methyl]-1H-imidazol-4-yl}-N,N-diethylaniline]",melting point,204 to 210 °C
"c1ccc(OCCN[C@H](Cc2c[nH]c3ccccc23)c2nc(-c3ccccc3)cs2)cc1 [Example 112, (1R)-2-(1H-indol-3-yl)-N-(2-phenoxyethyl)-1-(4-phenyl-1,3-thiazol-2-yl)ethanamine]",melting point,124 to 126 °C
"CCCCOC(=O)NCCc1nc(-c2ccc(-c3ccccc3Br)cc2)c[nH]1 [Example 456, butyl 2-[4-(2′-bromo-1,1′-biphenyl-4-yl)-1H-imidazol-2-yl]ethylcarbamate]",melting point,109.6 °C
"CC(C)(C)NC(=S)NCCc1nc(-c2ccc(-c3ccccc3)cc2)c[nH]1 [Example 172, 4-[2-(2-{[(tert-butylamino)carbothioyl]amino}ethyl)-1H-imidazol-4-yl]-1,1′-biphenyl]",melting point,98 to 99 °C
"CCCCCCN(Cc1ccccc1)Cc1nc(-c2ccc(-c3ccccc3)cc2)c[nH]1 [Example 41, N-benzyl-N-[(4-[1,1′-biphenyl]-4-yl-1H-imidazol-2-yl)methyl]-1-hexanamine]",melting point,120 to 122 °C
"CC(C)Cc1ccc(-c2c[nH]c(CCNC(=O)OCc3ccccc3)n2)cc1 [Example 446, benzyl 2-[4-(4-isobutylphenyl)-1H-imidazol-2-yl]ethylcarbamate]",melting point,125.2 °C
"c1ccc(-c2c[nH]c([C@@H](NCC3CCCCC3)C3CCCCC3)n2)cc1 (as salt: hydrochloride) [Example 265, (S)-cyclohexyl-N-(cyclohexylmethyl)(4-phenyl-1H-imidazol-2-yl)methanamine]",melting point,180 to 182 °C
"CC[C@H](N)c1nc(-c2ccc(-c3ccccc3)cc2)c[nH]1 (as salt: hydrochloride) [Example 196, (1S)-1-(4-[1,1′-biphenyl]-4-yl-1H-imidazol-2-yl)-1-propanamine]",melting point,> 250 °C
"c1ccc(CN[C@H](Cc2ccccc2)c2nc(-c3ccccc3)c[nH]2)cc1 [Example 48, (1R)-N-benzyl-2-phenyl-1-(4-phenyl-1H-imidazol-2-yl)ethanamine]",melting point,228 to 230 °C
"Cn1cc(-c2ccc(F)cc2)nc1[C@@H](NC1CCCCC1)C1CCCCC1 (as salt: hydrochloride) [Example 279, N-{(S)-cyclohexyl[4-(4-fluorophenyl)-1-methyl-1H-imidazol-2-yl]methyl}cyclohexanamine]",melting point,190 to 194 °C
"COc1ccc(-c2c[nH]c([C@@H](N)C3CCCCC3)n2)cc1F (as salt: hydrochloride) [Example 259, (S)-cyclohexyl[4-(3-fluoro-4-methoxyphenyl)-1H-imidazol-2-yl]-methanamine]",melting point,225 to 227 °C
